Consider one compound from patent publication US8492148B2, “Method for amplification of endothelial progenitor cell in vitro” (Foundation for Biomedical Research & Innovation, priority 2005, dated 2013).

The structures appear in SMILES notation. “Also recorded” adds a separate entry of the source.

The experiment concerns cord blood CD133 positive cell-derived EPC. Nature of the experiment: EPC colony assay (methylcellulose medium containing physiologically active substances). The class given is cell-based. As to conditions: 1 μM TGF-β inhibitor in serum-free culture medium (compared with 0, 0.1, 10 μM); cultivation for 2 weeks. Here is the method:
Using the serum-free culture media of the present invention containing various concentrations of TGF-β inhibitor as prepared in Example 1, cord blood CD133 positive cell-derived EPC was expanded in vitro and differentiated. The degree of expansion was evaluated by counting the number of colonies, and the degree of differentiation was evaluated by separately counting the number of colonies of blood lineage cell and that of EPC. For EPC colony, moreover, large cell colonies and small cell colonies were separately counted, as well as the total number of EPC colonies was counted.
The cord blood-derived mononuclear cells were collected and cultivated in a serum-free culture medium in the same manner as in Example 1. […]
The number of colonies confirmed to be the EPC colonies was counted. The total number of colonies, the number of small cell colonies and the number of large cell colonies were separately counted.
For the blood lineage colony, the number of colonies of four kinds of colonies: erythroid burst-forming unit colony (BFU-E), granulocyte-macrophage lineage colony-forming unit colony (CFU-GM), macrophage colony-forming unit colony (CFU-M) and mixed colony (CFU-GEM) was added, and the appearance frequency thereof was determined over time. […]

As to `NC(=O)c1ccc(-c2nc(-c3ccc4c(c3)OCO4)c(-c3ccccn3)[nH]2)cc1` [TGF-β inhibitor, 4-(5-benzo[1.3]dioxol-5-yl-4-pyridin-2-yl-1H-imidazol-2-yl)-benzamide], the “number of EPC colonies per Dish and total number of EPC colonies” value is reported as “at maximum; also recorded: largest number of EPC colonies”.
